The results in this text go back to US5807860A, “Urea derivatives” (Mitsubishi Chemical Corporation, priority 1995, dated 1998).

Data set [1] in a line: Moisture absorption under ambient atmosphere (Karl Fisher method). In kind it is physicochemical. The settings on record: kept under ambient atmosphere for 2 days. From the text:
Among these compounds, compounds having higher hygroscopic properties may absorb moisture when kept under ambient atmosphere to form substances represented by the following formula: [drawing 15] wherein R1, R2, R3, R4, R5, R6, k, l, and Y are the same as those defined above; symbol "a" represents 0 or an arbitrary integer or represents an arbitrary fraction; and symbol "b" represents an arbitrary integer or an arbitrary fraction. For example, 3.3% weight increase was observed by Karl Fisher method after N-{5-(1-imidazolyl)-2-methoxyphenyl}methyl-N-(1-pentyl)-N'-[2-{3-(4-phenyl-1-piperazinyl)propoxy}-6-methylphenyl]urea dihydrochloride obtained in Example 3 was kept under ambient atmosphere for 2 days.

The next data set concerns the target T1, ACAT of HepG2 cells (Homo sapiens, UniProt P35610).
T1 construct: endogenous in cells; host or cells: HepG2
T1 sequence (P35610 1-550): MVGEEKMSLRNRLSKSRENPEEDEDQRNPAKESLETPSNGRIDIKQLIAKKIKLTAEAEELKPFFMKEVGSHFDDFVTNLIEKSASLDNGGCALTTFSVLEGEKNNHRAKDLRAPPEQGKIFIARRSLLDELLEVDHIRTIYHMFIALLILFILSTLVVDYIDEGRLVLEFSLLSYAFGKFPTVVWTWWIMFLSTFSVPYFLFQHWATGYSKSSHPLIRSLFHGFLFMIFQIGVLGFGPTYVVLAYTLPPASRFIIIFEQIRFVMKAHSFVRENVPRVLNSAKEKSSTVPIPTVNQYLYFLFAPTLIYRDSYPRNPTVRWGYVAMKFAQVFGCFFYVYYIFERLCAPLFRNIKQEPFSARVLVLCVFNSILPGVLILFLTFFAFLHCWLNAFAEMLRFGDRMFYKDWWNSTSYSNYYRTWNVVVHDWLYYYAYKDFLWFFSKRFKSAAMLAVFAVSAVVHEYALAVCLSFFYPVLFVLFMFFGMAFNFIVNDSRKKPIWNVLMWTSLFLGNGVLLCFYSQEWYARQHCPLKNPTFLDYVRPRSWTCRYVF
Kind of data set: Inhibitory activity against ACAT of HepG2 cells derived from human liver cancer cells. In kind it is cell-based. The following applies: radio-labelled oleic acid/BSA complex, cholesterol oleate produced. As for the experimental part: Inhibitory Activity against ACAT of HepG2 cells Derived from Human Liver Cancer Cells Inhibitory activities of the compounds of the present invention against ACAT were measured by the method described below. HepG2 cells derived from human liver cancer cells were used for the measurement of the ACAT activity. A complex of radio-labelled oleic acid and bovine serum albumin was added to a culture of the cells, and the activity was measured by observing the amount of radio-labelled cholesterol oleate produced from the radio-labelled oleic acid in the cells.

Data set [2] deals with high cholesterol fed WISTAR male rats (total cholesterol in the serum). Kind of data set: Cholesterol reduction activity in high cholesterol fed rats. In kind it is in vivo, rat (WISTAR). The settings on record: Rattus norvegicus, once a day for 5 days, 3.5 hours after final administration, probit analysis. As for the experimental part: Cholesterol Reduction Activity in High Cholesterol Fed Rats
6-Week old WISTAR male rats were fed with high cholesterol solid feedstuff (Oriental Kobo Co., Ltd., 1% cholesterol, 0.5% cholic acid). Each group consisted of seven rats was compulsorily administered with 0.2% aqueous solution of a test compound (compound of Example 3) once a day at a dose of 1 mg/kg, 3 mg/kg, 10 mg/kg, or 30 mg/kg for 5 days. One group consisted of seven rats was fed with the same high cholesterol feedstuff and used as a control group. After 3.5 hours from the final administration, blood was collected from the abdominal aorta and the total cholesterol in the serum was measured. The reduction rate of total cholesterol was represented as a ratio between a control group not administered with the drug (seven rats) and examined by the probit analysis.

For data set [3], the target named is T2, ACAT in foamed macrophages (Mus musculus, UniProt Q61263).
T2 construct: endogenous in cells; host or cells: peritoneal macrophages of ddY female mice, foamed with acetylated LDL
T2 sequence (Q61263 1-540): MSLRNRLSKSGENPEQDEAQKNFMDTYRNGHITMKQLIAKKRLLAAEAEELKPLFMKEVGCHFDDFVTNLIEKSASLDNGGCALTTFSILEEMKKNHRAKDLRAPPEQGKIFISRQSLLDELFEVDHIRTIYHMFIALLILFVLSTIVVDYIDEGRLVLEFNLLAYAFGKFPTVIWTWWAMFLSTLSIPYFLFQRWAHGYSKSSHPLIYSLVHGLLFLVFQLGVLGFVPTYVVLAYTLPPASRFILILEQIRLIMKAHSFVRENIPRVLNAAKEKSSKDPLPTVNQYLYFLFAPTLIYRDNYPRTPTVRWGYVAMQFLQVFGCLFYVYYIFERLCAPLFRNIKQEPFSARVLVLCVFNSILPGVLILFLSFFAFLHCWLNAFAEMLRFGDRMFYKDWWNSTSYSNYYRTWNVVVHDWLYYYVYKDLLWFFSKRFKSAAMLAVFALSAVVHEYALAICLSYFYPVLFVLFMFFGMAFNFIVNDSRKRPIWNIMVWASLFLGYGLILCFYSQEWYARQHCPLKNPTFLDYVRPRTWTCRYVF
Put plainly: Inhibitory activity against ACAT derived from foamed macrophages. The class given is cell-based, mouse (ddY female mice). The following applies: foamed macrophages from ddY female mice; acetylated LDL, 24 hours; cholesterol oleate produced; read-out: Inhibitory activity against ACAT, Macrophage (IC50). The procedure: Inhibitory Activity against ACAT Derived from Foamed Macrophages
Inhibitory activity of the compounds of the present invention against ACAT in foamed macrophages was measured by the methods set out below. Acetylated low density lipoprotein was added to macrophages taken from abdominal cavities of ddY female mice and the cells were incubated for 24 hours to obtain foaming macrophages. These cells accumulated a large amount of cholesterol (ester) inside the cells, and are used as a model of arteriosclerosis lesion. ACAT activity of the cells was determined by adding a complex of radio-labelled oleic acid and bovine serum albumin to the cell culture, and observing the amount of radio-labelled cholesterol oleate that was produced from the radio-labelled oleic acid in the cells. The inhibitory activities of the compounds of the present invention against ACAT were measured as follows: percent reduction rates of enzymatic activity by the addition of given concentrations of test compounds was observed on the basis of the amount of the produced cholesterol oleate in the control group without the addition of a test compound, and by using the results, IC50, i.e., concentrations of tested compounds required to inhibit 50% of the enzyme activity, was calculated.

For `CCCCCN(Cc1cc(-n2ccnc2)ccc1OC)C(=O)Nc1c(C)cccc1OCCCN1CCN(c2ccccc2)CC1.Cl.Cl` [Example 3, N-{5-(1-imidazolyl)-2-methoxyphenyl}methyl-N-(1-pentyl)-N'-[2-{3-(4-phenyl-1-piperazinyl)propoxy}-6-methylphenyl]urea dihydrochloride], the “weight increase (moisture absorption)” value in data set [1] was determined as 3.3%. In addition, the midpoint of inhibition at ACAT of HepG2 cells, the IC50, lay at 0.108 µM. For the same compound, the ED10 in data set [2] (10% reduction of serum total cholesterol vs control, read-out: Dose of test compound for total cholesterol reduction rate 10%) is 1.9 mg/kg. In addition, the ED20 in data set [2] (20% reduction of serum total cholesterol vs control, read-out: Dose of test compound for total cholesterol reduction rate 20%) worked out at 3.6 mg/kg. The ED25 in data set [2] (25% reduction of serum total cholesterol vs control, read-out: Dose of test compound for total cholesterol reduction rate 25%) was 4.6 mg/kg. Moreover, the ED30 in data set [2] (30% reduction of serum total cholesterol vs control, read-out: Dose of test compound for total cholesterol reduction rate 30%) stood at 5.7 mg/kg. Also, the ED50 in data set [2] (50% reduction of serum total cholesterol vs control, read-out: Dose of test compound for total cholesterol reduction rate 50%) came to 12.1 mg/kg.
With `CCCCCN(Cc1ccc(OC)c(-n2ccnc2)c1)C(=O)Nc1c(C)cccc1OCCCN1CCN(c2ccccc2)CC1` [Example 58], the values for the concentration for half-maximal inhibition (IC50) (against ACAT of HepG2 cells; in data set [3]) were 0.584 µM and 1.05 µM, respectively.
